# Assay results from the supplement of paper PMC10307832.
# Columns and labels:
# Test in all cases: relative viability (nuclei count vs DMSO), 5 days (fraction); higher = more cells survive
# [1] = compound: CC(C)C[C@@H](C(=O)N[C@H](C(=O)OC1CCCC1)c1ccccc1)[C@H](O)C(=O)NO [Tosedostat] + COc1cccc2cc(-c3nc([C@H]4CC[C@H](C(=O)O)CC4)n4ncnc(N)c34)[nH]c12 [OSI-027] (partner 0.5 µM)
# Summary of the method: (§1)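 One day after seeding in 1536-well plates, lung cancer cell lines were dosed by pin tool. Dosing was either single-drug or a fixed anchor-drug dose plus five library-drug doses (not always all listed) in √10 steps. After 5 days, nuclei were stained in one fix-and-stain step and counted on 4× images, and relative viability is the nuclei count of treated wells over that of vehicle wells, given as the median of duplicate plates.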
# [2] = compound: CC1=NN=C(O1)C2=NN=C(C=C2)N3CCC(CC3)OC4=C(C=CC(=C4)F)Cl + COc1cccc2cc(-c3nc([C@H]4CC[C@H](C(=O)O)CC4)n4ncnc(N)c34)[nH]c12 [OSI-027] (partner 0.5 µM)
# Summary of the method: as §1
# [3] = compound: CC(C)C[C@@H](C(=O)N[C@H](C(=O)OC1CCCC1)c1ccccc1)[C@H](O)C(=O)NO [Tosedostat] + C[C@@H](Oc1cc(-c2cnn(C3CCNCC3)c2)cnc1N)c1c(Cl)ccc(F)c1Cl [Crizotinib] (partner 1 µM)
# Summary of the method: as §1
# [4] = compound: CC(C)C[C@@H](C(=O)N[C@H](C(=O)OC1CCCC1)c1ccccc1)[C@H](O)C(=O)NO [Tosedostat] + Nc1ncn([C@H]2C[C@H](O)[C@@H](CO)O2)c(=O)n1 [Decitabine] (partner 2 µM)
# Summary of the method: as §1
Cell Line,relative viability ([1]; first compound 0.02 µM),relative viability ([1]; first compound 0.06325 µM),relative viability ([1]; first compound 0.2 µM),relative viability ([1]; first compound 0.6325 µM),relative viability ([1]; first compound 2 µM),relative viability ([2]; first compound 0.253 µM),relative viability ([2]; first compound 0.8 µM),relative viability ([2]; first compound 2.53 µM),relative viability ([2]; first compound 8 µM),relative viability ([3]; first compound 0.02 µM),relative viability ([3]; first compound 0.06325 µM),relative viability ([3]; first compound 0.2 µM),relative viability ([3]; first compound 0.6325 µM),relative viability ([3]; first compound 2 µM),relative viability ([4]; first compound 0.02 µM),relative viability ([4]; first compound 0.06325 µM),relative viability ([4]; first compound 0.2 µM),relative viability ([4]; first compound 0.6325 µM),relative viability ([4]; first compound 2 µM)
COR-L 105,0.605,0.731,0.647,0.606,0.62,0.702,0.687,0.908,0.769,0.865,0.751,0.827,0.493,0.548,0.747,0.622,0.681,0.537,0.596
NCI-H1650,0.606,0.633,0.662,0.639,0.706,–,0.472,0.626,0.615,0.988,0.937,1.07,0.86,1.01,0.43,0.413,0.433,0.318,0.237
PC-3 [JPC-3],0.693,0.828,0.73,0.614,0.609,0.691,0.619,0.655,0.681,1,0.885,0.998,0.942,0.665,0.833,0.813,0.872,0.768,0.555
NCI-H1755,0.743,0.731,0.642,0.674,0.463,0.609,0.625,0.669,0.597,0.933,0.846,0.876,0.856,0.771,0.861,0.699,0.712,0.716,0.674
NCI-H23,0.702,0.599,0.683,0.494,0.372,0.49,–,0.547,0.627,0.504,0.494,0.442,0.341,0.206,0.309,0.315,0.323,0.286,0.306
NCI-H1915,0.659,0.614,0.643,0.585,0.532,0.596,0.349,0.553,0.421,0.922,0.894,0.901,0.905,0.79,0.226,0.283,0.26,0.261,0.214
NCI-H2405,0.662,0.637,0.707,0.596,0.585,0.607,0.549,0.634,0.616,0.873,0.772,0.825,0.771,0.791,0.772,0.733,0.712,0.603,0.657
EMC-BAC-2,0.4,0.405,0.412,0.416,0.319,0.441,0.382,0.354,0.417,0.847,0.724,0.742,0.703,0.536,1.04,0.964,0.971,0.877,0.865
NCI-H2087,0.664,0.497,0.487,0.543,0.559,0.641,0.422,0.422,0.3,0.832,0.823,0.643,0.731,0.716,0.37,0.23,0.24,0.224,0.225
NCI-H727,0.583,0.636,–,0.492,0.419,0.704,0.494,0.685,0.741,0.983,0.784,0.658,0.557,0.513,0.88,0.9,0.868,0.794,0.754
PC-14,0.959,0.818,0.637,0.5,0.449,0.818,0.572,0.721,0.643,0.843,0.805,0.893,0.842,0.92,0.218,0.177,0.146,0.0843,0.0753
NCI-H2009,0.696,0.605,0.498,0.4,0.367,0.673,0.618,0.605,0.564,1.07,1.07,1,1.02,0.924,0.379,0.377,0.404,0.433,0.329
NCI-H1975,0.822,0.743,0.708,0.552,0.424,–,0.529,0.754,0.695,0.939,1.01,1.1,0.773,0.802,0.396,0.425,0.4,0.274,0.407
ChaGo-K-1,0.54,0.525,0.577,0.617,0.498,0.506,0.422,0.597,0.398,1.05,1.03,1.14,1.01,0.84,0.487,0.526,0.543,0.463,0.419
NCI-H1437,0.977,0.969,0.846,0.828,0.805,0.697,0.742,0.795,0.614,0.941,0.988,1.03,0.914,0.895,0.537,0.569,0.58,0.566,0.564
NCI-H2126,0.714,0.786,0.622,0.614,0.583,0.626,0.589,0.756,0.661,0.974,1.02,1.02,0.954,0.935,0.533,0.583,0.591,0.478,0.462
LU99A,0.324,0.286,0.292,0.312,0.249,0.274,0.298,0.307,0.287,0.546,0.636,0.648,0.484,0.478,0.906,0.769,0.909,0.744,0.693

Cell Line,relative viability ([1]; first compound 0.02 µM),relative viability ([1]; first compound 0.06325 µM),relative viability ([1]; first compound 0.2 µM),relative viability ([1]; first compound 0.6325 µM),relative viability ([1]; first compound 2 µM),relative viability ([2]; first compound 0.253 µM),relative viability ([2]; first compound 0.8 µM),relative viability ([2]; first compound 2.53 µM),relative viability ([2]; first compound 8 µM),relative viability ([3]; first compound 0.02 µM),relative viability ([3]; first compound 0.06325 µM),relative viability ([3]; first compound 0.2 µM),relative viability ([3]; first compound 0.6325 µM),relative viability ([3]; first compound 2 µM),relative viability ([4]; first compound 0.02 µM),relative viability ([4]; first compound 0.06325 µM),relative viability ([4]; first compound 0.2 µM),relative viability ([4]; first compound 0.6325 µM),relative viability ([4]; first compound 2 µM)
NCI-H460,0.817,0.604,0.595,0.647,0.679,0.319,0.302,0.137,0.0418,0.956,0.787,0.905,0.708,0.932,0.514,0.466,0.457,0.468,0.528
LCLC-97TM1,0.603,0.451,0.442,0.418,0.497,0.523,0.391,0.472,0.508,0.338,–,–,0.288,0.221,0.186,0.234,0.212,0.207,0.184
NCI-H838,0.383,0.413,0.445,0.503,0.404,0.37,0.394,0.396,0.331,0.969,0.92,0.826,0.818,0.948,0.483,0.449,0.431,0.421,0.392
SK-LU-1,0.43,0.348,0.337,0.297,0.329,0.3,–,0.247,0.199,0.898,0.775,0.731,0.693,0.871,0.624,0.651,0.563,0.471,0.454
H3255,0.67,0.522,0.603,0.513,0.509,0.578,0.581,0.545,0.511,0.976,0.846,0.812,0.669,0.827,0.595,0.559,0.553,0.531,0.645
SK-MES-1,0.532,0.59,0.595,0.538,0.396,0.558,0.583,0.601,0.487,1.06,0.988,0.983,0.909,0.856,0.356,0.372,0.325,0.273,0.346
NCI-H1651,0.747,0.801,0.62,0.708,0.598,0.73,0.597,0.717,0.697,0.918,0.851,0.878,0.897,0.817,0.683,0.63,0.501,0.523,0.503
LXF-289,0.904,0.799,0.808,0.692,0.561,0.76,0.548,0.741,0.687,0.838,0.703,0.821,0.76,0.799,0.409,0.392,0.365,0.387,0.328
HCC-827,0.701,0.728,0.773,0.526,0.644,0.602,0.362,0.653,0.591,0.954,0.933,0.977,0.888,0.756,0.317,0.331,0.289,0.26,0.314
LK-2,0.174,0.214,0.239,0.219,0.199,0.265,0.23,0.311,0.234,0.218,0.225,0.232,0.249,0.215,0.305,0.306,0.237,0.262,0.272
HCC-366,1.15,0.806,1.01,0.643,0.594,0.32,0.399,0.393,0.407,0.681,0.532,0.432,0.465,0.325,0.332,0.369,0.397,0.311,0.359
BEN,0.298,0.292,0.286,0.31,0.326,0.309,0.28,0.309,0.318,0.894,0.875,0.818,1.02,0.956,0.79,0.761,0.676,0.734,0.665
NCI-H322M,0.606,0.571,0.567,0.556,0.509,0.513,0.492,0.636,0.516,0.877,0.957,0.841,0.868,0.71,0.69,0.652,0.587,0.636,0.621
201T,0.761,0.818,0.755,0.949,0.718,0.383,0.536,0.583,0.504,1.04,1.05,1.08,1.11,1.09,0.835,0.894,0.879,0.891,0.846
NCI-H2170,0.749,0.738,0.736,0.773,0.571,0.486,0.485,0.654,0.489,1.17,1.12,1.19,1.22,1.37,0.454,0.499,0.491,0.421,0.453
NCI-H661,0.706,0.767,0.714,0.648,0.561,0.633,0.588,0.528,0.484,0.929,0.93,1.12,1.04,1.04,0.637,0.547,0.535,0.522,0.512
RERF-LC-KJ,0.588,0.586,0.486,0.452,0.418,0.524,0.531,0.622,0.479,0.859,0.887,0.764,0.686,0.78,0.657,0.622,0.615,0.495,0.457
